# Laboratory results: the kinase profiling compilation of Christmann-Franck et al. (2016)
# Molecular target: SGK1 (human) (UniProt O00141)
# Experiment: Flashplate
# Chain of SGK1 (human) (O00141 whole entry, looked up): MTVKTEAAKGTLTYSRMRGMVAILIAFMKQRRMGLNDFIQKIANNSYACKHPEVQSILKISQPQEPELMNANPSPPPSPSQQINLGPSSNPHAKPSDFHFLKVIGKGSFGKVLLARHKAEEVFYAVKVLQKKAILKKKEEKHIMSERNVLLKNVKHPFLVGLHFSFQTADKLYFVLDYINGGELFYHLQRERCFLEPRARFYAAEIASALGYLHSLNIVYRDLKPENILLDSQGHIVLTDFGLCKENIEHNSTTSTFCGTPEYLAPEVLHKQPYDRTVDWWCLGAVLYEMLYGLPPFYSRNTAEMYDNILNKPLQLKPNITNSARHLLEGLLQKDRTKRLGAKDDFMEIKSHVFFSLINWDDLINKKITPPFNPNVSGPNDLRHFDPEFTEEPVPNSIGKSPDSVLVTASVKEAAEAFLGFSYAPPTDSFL
row,SMILES,Ki
1,CCOc1nc(C(=O)NCc2ccncc2)cc(N)c1C#N,> 10 µM
2,COCCO[C@H]1CC[C@H](n2nc(-c3ccc(Nc4nc5cc(C)cc(C)c5o4)cc3)c3c(N)ncnc32)CC1,> 10 µM
3,CCc1cccc(NC(=O)Nc2ccc3c(c2)CCc2sc4ncnc(N)c4c2-3)c1,> 10 µM
4,CC(C)(O)Cc1nnc2ccc(-c3c(-c4ccc(F)cc4F)nc4occn34)nn12,> 10 µM
5,Cc1nsc2[nH]cc(C(=O)O)c(=O)c12,> 10 µM
6,Nc1ncnc2sc(Br)c(-c3ccc(NC(=O)Cc4cccc(Cl)c4)cc3)c12,> 10 µM
7,FC(F)(F)Oc1ccc(-c2ccc3[nH]cc(C4=CCNCC4)c3c2)cc1,> 10 µM
8,Cc1nccn2c(-c3ccnc(NCC(C)(C)O)n3)c(-c3ccc(F)cc3F)nc12,> 10 µM
9,CNCc1ccc(-c2[nH]c3cc(F)cc4c3c2CCNC4=O)cc1,> 10 µM
10,COc1nccc(-c2c(-c3ccc(F)cc3)ncn2[C@H]2CC[C@H](O)CC2)n1,> 10 µM
11,Cc1cccc(NC(=O)Nc2ccc(-c3csc4c(-c5cnn(C)c5)cnc(N)c34)cc2)c1,> 10 µM
12,CCCS(=O)(=O)Nc1ccc(-c2ccc3[nH]nc(NC(C)=O)c3c2)cc1,> 10 µM
13,CCS(=O)(=O)c1ccc(-c2cncc3sc(C(N)=O)cc23)cc1,3.98 µM
14,O=C(O)c1cc2c(-c3cccc(F)c3)cncc2s1,> 10 µM
15,N[C@H](COc1cncc(-c2cc3ccncc3s2)c1)Cc1c[nH]c2ccccc12,0.0501 µM
16,COc1cc(-c2ccc3c(c2)Nc2ccc([N+](=O)[O-])cc2NC3=O)ccc1O,> 10 µM
17,OC1CCN(c2ncnc3[nH]cc(-c4ccccc4)c23)CC1,3.98 µM
18,O=C1Nc2ccccc2Nc2nnc(Cl)cc21,5.01 µM
19,Cn1cc(C(CN)c2cncc(/C=C/c3ccncc3)c2)c2ccccc21 (stereo not drawn),> 10 µM
20,COc1ccc(-c2ccc(NC(=O)Nc3ccc(F)c(C)c3)cc2)c2c(N)noc12,> 10 µM
21,Nc1nnc(-c2cc3c(Oc4ccc(Cl)cc4)cncc3s2)o1,1.58 µM
22,CC(C)(C)n1nc(-c2ccc(Cl)cc2)c2c(N)ncnc21,> 6.31 µM
23,CC(C)NC(=O)COc1cccc(-c2nc(Nc3ccc4[nH]ncc4c3)c3ccccc3n2)c1,> 10 µM
24,CC(C)(C)c1cnc(CSc2cnc(NC(=O)C3CCNCC3)s2)o1,> 6.31 µM
25,O=C1NC(=O)C(c2cnc3ccccn23)=C1c1cn2c3c(cccc13)CN(C(=O)N1CCOCC1)CC2,> 10 µM
26,c1ccc(CNc2nc(-c3ccc4[nH]ncc4c3)cs2)cc1,> 6.31 µM
27,Cc1ccc(NC(=O)Nc2ccc(-c3coc4ncnc(N)c34)cc2)cc1,> 10 µM

row,SMILES,Ki
1,N#Cc1ncc2nc1OCCCCCOc1cc(OCCO)c(Cl)cc1NC(=O)N2,> 10 µM
2,COc1ccc(CNC(=O)Nc2ncc([N+](=O)[O-])s2)cc1,> 10 µM
3,COCCOCC#Cc1cc(-c2n[nH]c3c2C(=O)c2cc(CN4CCN(C)CC4)ccc2-3)cs1,> 10 µM
4,CS(=O)(=O)N(Cc1ccc2[nH]c(=O)c3cccn3c2c1)C1CC1,> 10 µM
5,O=C(Cc1ccccc1)Nc1cccc(-c2nc3sccn3c2-c2ccnc(Nc3cccc(N4CCCC4=O)c3)n2)c1,> 10 µM
6,CCCS(=O)(=O)Nc1ccc(-c2ccc3[nH]nc(N)c3c2)cc1,0.316 µM
7,Cc1nn(-c2ccccc2)c2c1c(=O)c1cc(Cl)ccc1n2O,> 10 µM
8,COc1cc2c(cc1F)C(c1ccccc1Cl)=Nc1c(n[nH]c1C)N2,7.94 µM
9,Cc1cccc(NC(=O)Nc2ccc(-c3csc4c(C#CCN)cnc(N)c34)cc2)c1,3.98 µM
10,O=C(N/N=C/c1ccc(Sc2nc3ccccc3[nH]2)o1)c1cccc([N+](=O)[O-])c1,> 10 µM
11,Nc1ncc(-c2ccoc2)c2scc(-c3ccc(NC(=O)Nc4ccccc4F)cc3)c12,> 10 µM
12,Cc1cc2nnc(SCc3cn4ccccc4n3)n2c2ccccc12,> 10 µM
13,CC(C)(CO)CNc1nccc(-c2c(-c3ccc(F)cc3)nc3c(Cl)nccn23)n1,> 10 µM
14,OCCNc1cc2cc(-c3cccnc3)ccc2cn1,3.98 µM
15,N#Cc1ccc(-c2n[nH]c3c2Cc2ccc(OCCN4CCOCC4)cc2-3)cn1,> 10 µM
16,O=C(Nc1cnccn1)Nc1ccnc2c(C(F)(F)F)cccc12,> 10 µM
17,C/C(=N/NC(=N)N)c1cc(NC(=O)NCCCN(C)CCCNC(=O)Nc2cc(/C(C)=N\NC(=N)N)cc(/C(C)=N/NC(=N)N)c2)cc(/C(C)=N/NC(=N)N)c1,> 10 µM
18,CNC(=O)C(C)n1cc(-c2cnc(N)c3c(-c4ccc(NC(=O)Nc5ccc(C)cc5)cc4)csc23)cn1 (stereo not drawn),> 10 µM
19,CC1=NN(c2ccccc2)C(=O)/C1=C/c1c(C)c(C#N)c2nc3ccccc3n2c1O,> 10 µM
20,O=C1Nc2ccccc2Nc2ccccc21,> 10 µM
21,CCn1c(C)c(-c2ccnc(Nc3cccc(OC)c3)n2)sc1=O,0.316 µM
22,Oc1cccc(-c2nc(N3CCOCC3)c3oc4ncccc4c3n2)c1,> 7.94 µM
23,N[C@H](COc1cncc(/C=C/c2ccncc2)c1)Cc1ccccc1,> 10 µM
24,COCC(C)(C)CNc1nccc(-c2c(-c3ccc(F)cc3)nc3c(C)nccn23)n1,> 10 µM
25,Nc1n[nH]c2cccc(-c3ccc(NC(=O)Nc4ccccc4)cc3)c12,1 µM
26,N[C@@H](Cc1c[nH]c2ccccc12)C(=O)Nc1cncc(/C=C/c2ccncc2)c1,3.16 µM
